Assay results as given in ChEMBL document CHEMBL1155132, “Synthesis and structure-activity relationship of 1H-indole-3-carboxylic acid pyridine-3-ylamides: a novel series of 5-HT2C receptor antagonists” (Bioorg Med Chem Lett, 2008).
pIC50: −log10 of the molar value.

Tests used:
D(4) dopamine receptor = molecular target: T1, D(4) dopamine receptor (Homo sapiens, UniProt P21917); assay: Displacement of [3H]spiperone from human cloned dopamine D4 receptor
T1 sequence (P21917 whole entry): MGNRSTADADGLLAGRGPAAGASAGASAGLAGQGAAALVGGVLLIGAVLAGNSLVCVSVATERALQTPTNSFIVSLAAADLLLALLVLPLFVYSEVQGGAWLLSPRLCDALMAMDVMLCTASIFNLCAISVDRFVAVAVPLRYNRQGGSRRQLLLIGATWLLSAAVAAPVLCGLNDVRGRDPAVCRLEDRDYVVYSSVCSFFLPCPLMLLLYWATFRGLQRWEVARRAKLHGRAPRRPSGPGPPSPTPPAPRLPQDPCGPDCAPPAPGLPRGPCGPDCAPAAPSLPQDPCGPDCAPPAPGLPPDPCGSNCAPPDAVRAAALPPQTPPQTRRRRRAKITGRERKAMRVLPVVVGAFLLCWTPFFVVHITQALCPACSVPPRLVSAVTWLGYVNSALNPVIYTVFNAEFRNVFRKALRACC

[1] = molecular target: T2, 5-hydroxytryptamine receptor 2C (Homo sapiens, UniProt P28335); assay: Displacement of [3H]mesulergine at human cloned 5HT2C receptor expressed in CHOK1 cell; type: cell-based, CHO-K1
T2 sequence (P28335 whole entry): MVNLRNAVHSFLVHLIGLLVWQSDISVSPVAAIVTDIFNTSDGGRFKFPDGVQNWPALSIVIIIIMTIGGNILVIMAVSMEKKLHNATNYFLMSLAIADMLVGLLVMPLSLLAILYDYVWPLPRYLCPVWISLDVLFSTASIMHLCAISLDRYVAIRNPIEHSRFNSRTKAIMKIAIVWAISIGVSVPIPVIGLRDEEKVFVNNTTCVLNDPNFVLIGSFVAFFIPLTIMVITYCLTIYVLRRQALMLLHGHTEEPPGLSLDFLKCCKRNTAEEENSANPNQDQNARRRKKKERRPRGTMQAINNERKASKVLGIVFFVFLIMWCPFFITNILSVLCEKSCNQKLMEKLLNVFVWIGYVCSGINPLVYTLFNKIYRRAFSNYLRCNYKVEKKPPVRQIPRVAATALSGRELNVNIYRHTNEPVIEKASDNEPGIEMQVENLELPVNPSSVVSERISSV

[2] = molecular target: T3, 5-hydroxytryptamine receptor 1A (Homo sapiens, UniProt P08908); assay: Displacement of [3H]8-OH-DPAT from human cloned 5HT1A receptor
T3 sequence (P08908 whole entry): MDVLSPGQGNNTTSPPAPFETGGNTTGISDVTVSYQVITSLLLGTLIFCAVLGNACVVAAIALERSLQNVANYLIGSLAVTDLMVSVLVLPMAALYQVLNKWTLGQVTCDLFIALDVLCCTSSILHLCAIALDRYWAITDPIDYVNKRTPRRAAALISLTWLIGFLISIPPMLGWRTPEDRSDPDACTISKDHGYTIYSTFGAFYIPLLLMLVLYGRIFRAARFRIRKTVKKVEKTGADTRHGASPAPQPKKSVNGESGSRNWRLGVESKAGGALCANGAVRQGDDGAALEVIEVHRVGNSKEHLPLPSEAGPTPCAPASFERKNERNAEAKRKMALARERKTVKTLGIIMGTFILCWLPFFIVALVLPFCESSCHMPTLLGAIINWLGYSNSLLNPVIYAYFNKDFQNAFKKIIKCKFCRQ

[3] = molecular target: 5-hydroxytryptamine receptor 7 (Homo sapiens, UniProt P34969); assay: Displacement of [3H]LSD from human cloned 5HT7 receptor
D(3) dopamine receptor = D(3) dopamine receptor (Homo sapiens, UniProt P35462); assay: Displacement of [3H]spiperone from human cloned dopamine D3 receptor
[4] = molecular target: 5-hydroxytryptamine receptor 2A (Homo sapiens, UniProt P28223); assay: Displacement of [3H]ketanserin from human cloned 5HT2A receptor
[5] = molecular target: 5-hydroxytryptamine receptor 6 (Homo sapiens, UniProt P50406); assay: Displacement of [3H]LSD from human cloned 5HT6 receptor
D(2) dopamine receptor = D(2) dopamine receptor (Homo sapiens, UniProt P14416); assay: Displacement of [3H]spiperone from human cloned dopamine D2 receptor
Sequence of D(2) dopamine receptor (P14416 whole entry): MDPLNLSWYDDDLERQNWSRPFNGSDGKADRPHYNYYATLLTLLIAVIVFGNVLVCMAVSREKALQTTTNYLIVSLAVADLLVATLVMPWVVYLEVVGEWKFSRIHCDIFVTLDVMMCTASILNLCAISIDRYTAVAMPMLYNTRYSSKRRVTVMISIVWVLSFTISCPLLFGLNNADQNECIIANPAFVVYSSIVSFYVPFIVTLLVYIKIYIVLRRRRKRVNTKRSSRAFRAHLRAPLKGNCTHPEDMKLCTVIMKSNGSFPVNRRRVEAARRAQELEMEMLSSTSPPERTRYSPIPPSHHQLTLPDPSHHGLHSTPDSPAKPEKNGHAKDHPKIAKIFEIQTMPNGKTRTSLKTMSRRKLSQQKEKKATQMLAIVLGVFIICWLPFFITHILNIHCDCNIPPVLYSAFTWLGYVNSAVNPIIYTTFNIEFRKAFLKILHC

Sequence of 5-hydroxytryptamine receptor 2A (P28223 whole entry): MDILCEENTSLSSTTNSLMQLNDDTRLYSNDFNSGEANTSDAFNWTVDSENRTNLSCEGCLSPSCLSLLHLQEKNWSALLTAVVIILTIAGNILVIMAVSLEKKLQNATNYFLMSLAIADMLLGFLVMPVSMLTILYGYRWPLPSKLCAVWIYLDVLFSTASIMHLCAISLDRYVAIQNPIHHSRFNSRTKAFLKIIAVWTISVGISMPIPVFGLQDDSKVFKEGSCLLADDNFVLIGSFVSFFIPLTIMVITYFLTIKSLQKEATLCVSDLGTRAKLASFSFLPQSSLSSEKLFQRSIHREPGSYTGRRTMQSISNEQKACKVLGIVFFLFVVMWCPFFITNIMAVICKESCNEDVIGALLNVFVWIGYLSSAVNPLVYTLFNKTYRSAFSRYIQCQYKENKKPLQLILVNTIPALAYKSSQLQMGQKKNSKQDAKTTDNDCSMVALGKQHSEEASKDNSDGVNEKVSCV
Sequence of 5-hydroxytryptamine receptor 7 (P34969 whole entry): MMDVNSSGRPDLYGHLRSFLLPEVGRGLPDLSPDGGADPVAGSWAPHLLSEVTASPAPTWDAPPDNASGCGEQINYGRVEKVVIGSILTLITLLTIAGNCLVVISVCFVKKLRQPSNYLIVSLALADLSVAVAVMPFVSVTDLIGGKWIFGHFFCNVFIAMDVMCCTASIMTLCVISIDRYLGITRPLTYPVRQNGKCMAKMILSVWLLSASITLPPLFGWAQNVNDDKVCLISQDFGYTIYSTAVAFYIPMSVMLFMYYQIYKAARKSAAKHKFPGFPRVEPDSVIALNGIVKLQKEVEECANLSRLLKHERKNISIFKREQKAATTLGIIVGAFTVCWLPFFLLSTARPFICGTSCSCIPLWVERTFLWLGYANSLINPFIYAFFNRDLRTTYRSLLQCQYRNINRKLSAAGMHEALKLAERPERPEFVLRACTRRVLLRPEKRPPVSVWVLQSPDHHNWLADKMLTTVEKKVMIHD
Sequence of D(3) dopamine receptor (P35462 whole entry): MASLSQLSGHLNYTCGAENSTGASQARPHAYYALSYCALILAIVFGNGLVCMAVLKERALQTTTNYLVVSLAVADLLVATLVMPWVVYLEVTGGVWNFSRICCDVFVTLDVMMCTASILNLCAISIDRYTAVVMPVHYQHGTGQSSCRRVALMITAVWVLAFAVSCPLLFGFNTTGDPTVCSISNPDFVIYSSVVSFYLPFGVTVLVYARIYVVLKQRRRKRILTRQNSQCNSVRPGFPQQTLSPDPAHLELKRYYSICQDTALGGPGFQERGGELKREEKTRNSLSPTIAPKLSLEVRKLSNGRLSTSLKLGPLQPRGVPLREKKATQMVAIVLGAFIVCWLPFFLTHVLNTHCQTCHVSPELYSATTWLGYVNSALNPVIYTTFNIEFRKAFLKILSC
Sequence of 5-hydroxytryptamine receptor 6 (P50406 whole entry): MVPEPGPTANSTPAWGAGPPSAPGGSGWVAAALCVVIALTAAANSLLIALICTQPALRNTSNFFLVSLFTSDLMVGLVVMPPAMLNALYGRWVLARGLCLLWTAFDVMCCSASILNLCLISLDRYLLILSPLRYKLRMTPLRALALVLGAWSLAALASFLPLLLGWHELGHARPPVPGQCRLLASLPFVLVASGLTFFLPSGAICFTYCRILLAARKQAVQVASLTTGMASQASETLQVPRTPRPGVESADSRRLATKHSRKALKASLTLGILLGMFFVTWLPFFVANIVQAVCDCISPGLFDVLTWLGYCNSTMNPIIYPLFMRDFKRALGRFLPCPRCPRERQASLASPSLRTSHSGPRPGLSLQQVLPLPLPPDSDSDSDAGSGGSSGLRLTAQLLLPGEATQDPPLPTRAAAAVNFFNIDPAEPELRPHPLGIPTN

O=C(Nc1ccc(Oc2cccnc2Cl)nc1)c1c[nH]c2ccccc12
pIC50 (D(4) dopamine receptor): < 5.00

O=C(Nc1cccnc1)c1c[nH]c2ccccc12
pIC50 [1]: < 5.00

Cc1cc2c(cc1C(F)(F)F)N(C(=O)Nc1ccc(Oc3cccnc3C)nc1)CC2 [SB-243213]
pIC50 (D(4) dopamine receptor): < 6.00

O=C(Nc1ccc(OCc2ccccn2)nc1)c1c[nH]c2ccccc12
pIC50 [1]: 8.22

O=C(Nc1ccc(Oc2cccnc2)nc1)c1c[nH]c2ccccc12
pIC50 [2]: < 5.00 | pIC50 [3]: < 5.00 | pIC50 (D(3) dopamine receptor): < 5.00 | pIC50 (D(4) dopamine receptor): < 5.00 | pIC50 [4]: < 6.00 | pIC50 [5]: < 5.00 | pIC50 (D(2) dopamine receptor): < 5.00

Cc1ncccc1Oc1ccc(NC(=O)c2cc3ccccc3[nH]2)cn1
pIC50 [1]: 7.23
